Data: paper PMC7738869, “A novel STAT3 inhibitor W2014-S regresses human non-small cell lung cancer xenografts and sensitizes EGFR-TKI acquired resistance” (Theranostics, 2021)

Columns and labels:
[1] = tested on: PC-9/GR cells; assay: Cell apoptosis assay (Annexin V-FITC/PI flow cytometry), PC-9/GR; assay type: cell-based, human; conditions: 72 h
Experimental: Briefly, aliquots of 2 × 10^5 cells were seeded into 6-well plates and incubated for 24 h at 37 °C. […] After trypsinization and gently washing cells once with medium, the cells were washed twice with cold PBS. The precipitation was resuspended by 400 μL of 1 × binding buffer, and then resuspended cells were transferred into new 1.5 mL EP tubes. Then 3 μL of Annexin V-FITC and 5 μL of propidium iodide were added to the resuspended cells with further incubation at room temperature for 15 min in the dark. The analysis was done on Guava easyCyte (USA) and FlowJo 7.6 software.

[2] = tested on: A549 cells; assay: Wound healing assay for migration; assay type: cell-based, human; conditions: 48 h
Experimental: The motility of cells was measured by wound healing assay. Cells were seeded into 6-well plates and cultured to 90-100% confluent after 24 h. Wounds were made in each well of 6-well plates using pipette tips. […] The migration of cells was visualized under a microscope (4 ×, Nikon, Japan) and photographed in different time points (0 and 48 h).

[3] = tested on: JAK2; assay: Western blot of phosphorylated and total JAK2 in A549 and PC-9 cells; assay type: cell-based, human; conditions: A549 and PC-9, 0-3 μM, 24 h
Experimental: (§1) Cells or tumor tissue were lysed with RIPA buffer (Beyotime, Shanghai, China) supplemented with protease inhibitors (Beyotime, Shanghai, China) and phosphatase inhibitors (Bimake, USA). Lysates were denatured by heating for 5 min at 99 °C and loaded on 4-10% SDS-polyacrylamide gel electrophoresis. Then the proteins were transferred to polyvinylidene fluoride (PVDF) membranes (Millipore, USA). The membranes were blocked and probed with primary antibodies and secondary HPR-conjugated antibodies. At last the membranes were detected by chemiluminescence (Tanon, Shanghai, China). For co-immunoprecipitation experiments, 293T cells were plated and grew to about 80% confluency, then co-transfected with plasmids of HA-STAT3 and Flag-STAT3 using Lipofectamine 2000. After 24 h, cells were treated with different concentrations of W2014-S for following 24 h, and stimulated with IL-6 (100 ng/mL) for 1 h. Cells were lysed with IP RIPA buffer (Beyotime, Shanghai, China) supplemented with protease inhibitors (Beyotime, Shanghai, China) and phosphatase inhibitors (Bimake, America), and lysates were cultured with Anti-flag Affinity Gel (B23102, Bimake, USA) overnight at 4 ℃. The gel was washed by PBST for three times and added 1×loading buffer and denatured by heating for 5 min at 99 ℃. Then the proteins were resolved on SDS-PAGE, transferred to PVDF membranes and analysed with immunoblotting.

[4] = tested on: A549 cells with STAT3 knock down / knock out; assay: Cell proliferation assay in A549 cells with STAT3 knocked down (siRNA) or knocked out (CRISPR/Cas9); assay type: cell-based, human
Source text: To knockout the STAT3 gene in A549 cells using CRISPR/Cas9 system, the lentiCRISPRv2 vector (gift from Professor Junjian Wang, Sun Yat-Sen University, China) was used. An optimized guide RNA (gRNA) targeting the exon2 of STAT3 was designed in an online CRISPR design tool (http://crispor.tefor.net/). Then the guide RNA (synthesized by Sangon Biotech) inserted into lentiCRISPRv2 vector and the recombinant plasmid (sgSTAT3) was transfected and amplified in E.coli JM109. The confirmed and purified sgSTAT3 plasmid was transfected into A549 cells using lentivirus, after 48h post-transfection, cells were selected by introducing into 3 μg/mL puromycin for 2 weeks. Then the puromycin-resistant cells were planted into 96-wells plate with a density of one single cell per well and expanse to select the STAT3-konckout cells. The STAT3-konckout cells isolated from the single-colony were verified by western blotting analysis. The gRNA used to knockout STAT3 as follows,
Cell proliferation was measured using the Cell Counting Kit-8 (CCK-8, B34304, Bimake, USA). […] The absorbance (A) was measured by a microplate reader (FLUOstar Omega-ACU, USA) at test and reference wavelengths of 450 nm. The percentage of growth was calculated as Cell viability (%) = [A (Compound +) - A (Blank) ] / [A (Compound -) - A (Blank) ] × 100%. […]

[5] = biological target: STAT3-STAT3 dimerization (Homo sapiens, UniProt P40763); assay: Co-immunoprecipitation of HA-STAT3 and Flag-STAT3 in A549 cells; assay type: cell-based; parameters: expressed in transfected cells; host or cells: A549; conditions: A549, 0, 0.3, 1 μM, 24 h
Chain of STAT3-STAT3 dimerization (P40763 whole entry): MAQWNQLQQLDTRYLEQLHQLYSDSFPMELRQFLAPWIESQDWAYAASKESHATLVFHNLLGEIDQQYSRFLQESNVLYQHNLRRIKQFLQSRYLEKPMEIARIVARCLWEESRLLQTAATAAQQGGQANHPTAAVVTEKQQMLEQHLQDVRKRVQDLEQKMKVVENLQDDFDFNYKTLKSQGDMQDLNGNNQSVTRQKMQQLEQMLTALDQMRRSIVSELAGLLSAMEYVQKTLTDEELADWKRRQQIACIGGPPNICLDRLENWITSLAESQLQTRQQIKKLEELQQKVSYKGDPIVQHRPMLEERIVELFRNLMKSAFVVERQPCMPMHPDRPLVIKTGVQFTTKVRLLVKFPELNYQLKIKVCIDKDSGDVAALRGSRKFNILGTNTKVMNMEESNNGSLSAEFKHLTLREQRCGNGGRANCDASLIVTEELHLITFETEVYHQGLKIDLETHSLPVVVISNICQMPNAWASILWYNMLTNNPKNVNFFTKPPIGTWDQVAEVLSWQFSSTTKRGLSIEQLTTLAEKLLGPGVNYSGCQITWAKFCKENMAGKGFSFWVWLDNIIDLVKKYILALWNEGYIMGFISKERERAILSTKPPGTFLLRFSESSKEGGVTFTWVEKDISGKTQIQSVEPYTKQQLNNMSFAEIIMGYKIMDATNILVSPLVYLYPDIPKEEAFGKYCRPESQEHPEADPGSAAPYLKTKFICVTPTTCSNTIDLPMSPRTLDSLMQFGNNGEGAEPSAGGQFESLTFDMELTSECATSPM
Experimental: as §1

[6] = tested on: STAT3; assay: STAT3-dependent dual-luciferase reporter assay in 293T cells; assay type: cell-based, human; conditions: 293T, 0, 0.3, 1 μM, 24 h
Experimental: The STAT3-dependent luciferase reporter, pGL3-STAT3, contained seven copies of the STAT3-specific binding sequence ([…]) in the C-reactive protein gene promoter, and drove firefly luciferase expression. The new construct was confirmed by sequencing. For luciferase studies, 293T cells or A549 cells in 96-well plates were transiently co-transfected with the appropriate plasmids (10 ng TKRL as internal control vector for normalizing and 50 ng of pGL3-STAT3) using Lipofectamine 2000 (11668500, Invitrogen, Carlsbad, CA, USA) which was following the manufacturer's protocol. After 24 h, HEK-293T cells were treated with 0-1 μM W2014-S for 24 h, and stimulated with IL-6 (100 ng/mL, PeproTech) for 1 h or EGF (50 ng/mL, PeproTech) for 30 min. Subsequently, cytosolic extracts were prepared for dual-luciferase reporter assay.

[7] = tested on: Bcl-2, Bcl-xL and c-Myc; assay: Western blot of STAT3 downstream genes in A549 and PC-9 cells; assay type: cell-based, human; conditions: A549 and PC-9, 0-3 μM, 24 h
Experimental: as §1

[8] = gefitinib 2 μM and/or W2014-S 1 μM

C[C@H](Oc1ccc(-c2nc3nc(C4=CCN(C(=O)OC(C)(C)C)CC4)ccc3[nH]2)cc1)c1ccccc1 [W2014-S]
effect on gefitinib-induced apoptosis ([1]; W2014-S 1 μM + gefitinib 2 μM): significantly enhanced gefitinib-induced apoptosis
Q1 [1, 8]: 0.164%
Q2 [1, 8]: 4.50%
Q3 [1, 8]: 3.47%
Q4 [1, 8]: 91.9%
cell migration [2]: remarkably inhibited the migration
protein level of phosphorylated JAK2 and total JAK2 [3]: little or no effect
anti-cancer activities in STAT3 knocked out cells ([4]; A549, Crispr/cas9): significantly attenuated
anti-cancer activities in STAT3 knocked down cells ([4]; A549, siRNA interference): significantly attenuated
dimerization of HA-STAT3 and Flag-STAT3 [5]: inhibited by W2014-S in a dosage-dependent manner
STAT3-dependent luciferase reporter activity induced by IL-6 [6]: dose-dependently inhibited
expression of STAT3 downstream genes Bcl-2, Bcl-xL and c-Myc [7]: inhibited by W2014-S dose-dependently
